The source of these data is patent publication US8101550B2, “Anthranilic acid diamide derivative with hetero-aromatic and hetero-cyclic substituents” (Bayer Cropscience AG, priority 2006, dated 2012).

Each structure is given as a SMILES string.

One series in a line: log P determination by HPLC on reverse-phase column (EEC Directive 79/831 Annex V.A8). In kind it is physicochemical.
Settings: not given
The procedure:
The log P values stated in the foregoing tables and preparation examples are determined in accordance with EEC Directive 79/831 Annex V.A8 by means of HPLC (High Performance Liquid Chromatography) on a reverse-phase column (C 18). Temperature: 43° C.
The determination by LC-MS in the acidic range takes place at a pH of 2.7 using 0.1% aqueous formic acid and acetonitrile (containing 0.1% formic acid) as eluents; linear gradient from 10% acetonitrile to 95% acetonitrile.
Calibration is with unbranched alkan-2-ones (having 3 to 16 carbon atoms) of known log P value (log P values determined from the retention times by linear interpolation between two successive alkanones).
Broadly, the logP is the decadic logarithm of the partition coefficient of the neutral form, usually between octanol and water. Higher therefore signals higher lipophilicity. In turn, `Cc1cc(Cl)cc(C(=O)NC(C)C)c1NC(=O)c1cc(Cn2nnc(-c3ccc(Br)cc3)n2)nn1-c1ncccc1Cl` [I-1-151] gave a logP of 4.20.

For the molecule `CSC[C@H](C)NC(=O)c1cc(Cl)cc(C)c1NC(=O)c1cc(Cn2nnc(-c3ccc(Br)cc3)n2)nn1-c1ncccc1Cl` [I-1-152], the log partition coefficient (logP) is 4.41. `CNC(=O)c1cc(Cl)cc(C)c1NC(=O)c1cc(Cn2cnc(-c3ccc(Cl)cc3)n2)nn1-c1ncccc1Cl` [I-1-153] had a lipophilicity (logP) of 3.07. Consider `Cc1cc(Cl)cc(C(=O)NC(C)C)c1NC(=O)c1cc(Cn2cnc(-c3ccc(Cl)cc3)n2)nn1-c1ncccc1Cl` [I-1-154], for which the logP was found to be 3.56. On the same count and under the same terms, with `CNC(=O)c1cc(Cl)cc(C)c1NC(=O)c1cc(Cn2nnc(-c3cc(Cl)nc(Cl)c3)n2)nn1-c1ncccc1Cl` [I-1-155] the figure was 3.69; with `Cc1cc(Cl)cc(C(=O)NC(C)C)c1NC(=O)c1cc(Cn2nnc(-c3cc(Cl)nc(Cl)c3)n2)nn1-c1ncccc1Cl` [I-1-156], 4.17. With `CSC[C@H](C)NC(=O)c1cc(Cl)cc(C)c1NC(=O)c1cc(Cn2nnc(-c3cc(Cl)nc(Cl)c3)n2)nn1-c1ncccc1Cl` [I-1-157], the logP is listed as 4.36.

In turn, `CSC[C@H](C)NC(=O)c1cc(Cl)cc(C)c1NC(=O)c1cc(Cn2nnc(-c3ccc(Cl)nc3)n2)nn1-c1ncccc1Cl` [I-1-158] came in with a logP of 3.67. `CSC[C@H](C)NC(=O)c1cc(Cl)cc(C)c1NC(=O)c1cc(Cn2cnc(-c3ccc(Cl)nc3)n2)nn1-c1ncccc1Cl` [I-1-159] gave a logP of 3.78. In turn, `CNC(=O)c1cc(Cl)cc(C)c1NC(=O)c1cc(Cn2cnc(C(C)(C)C)n2)nn1-c1ncccc1Cl` [I-1-160] had a logP of 2.39.

Consider `Cc1cc(Cl)cc(C(=O)NC(C)C)c1NC(=O)c1cc(Cn2cnc(C(C)(C)C)n2)nn1-c1ncccc1Cl` [I-1-161], for which the logP is 2.87. As to `CSC[C@H](C)NC(=O)c1cc(Cl)cc(C)c1NC(=O)c1cc(Cn2cnc(C(C)(C)C)n2)nn1-c1ncccc1Cl` [I-1-162], the log partition coefficient (logP) is listed as 3.10. `CNC(=O)c1cc(Cl)cc(C)c1NC(=O)c1cc(Cn2nnnc2-c2ccc(C(F)(F)F)cc2)nn1-c1ncccc1Cl` [I-1-163] gave a logP of 3.15. In turn, `CNC(=O)c1cc(Cl)cc(C)c1NC(=O)c1cc(Cn2nnc(-c3ccccc3)n2)nn1-c1ncccc1Cl` [I-1-165] came in with a logP of 3.09. Molecule `Cc1cc(Cl)cc(C(=O)NC(C)C)c1NC(=O)c1cc(Cn2nnc(-c3ccccc3)n2)nn1-c1ncccc1Cl` [I-1-166] returned a lipophilicity (logP) of 3.60. Molecule `Cc1cc(Cl)cc(C(=O)N=S(C(C)C)C(C)C)c1NC(=O)c1cc(Cn2nc(C(F)(F)F)nc2C(F)(F)F)nn1-c1ncccc1Cl` [I-1-167] came in with a logP of 4.44. Molecule `Cc1cc(Cl)cc(C(=O)NC(C)C)c1NC(=O)c1cc(Cn2nnn(-c3ccc(Cl)cc3)c2=O)nn1-c1ncccc1Cl` [I-1-168] came in with a logP of 3.79. On the same count and under the same terms, with `Cc1cc(C#N)cc(C(=O)NC(C)C)c1NC(=O)c1cc(Cn2cc(C(F)(F)C(F)(F)F)c(C(F)(F)C(F)(F)F)n2)nn1-c1ncccc1Cl` [I-1-169] the figure was 4.55; with `CNC(=O)c1cc(C#N)cc(C)c1NC(=O)c1cc(Cn2cc(C(F)(F)C(F)(F)F)c(C(F)(F)C(F)(F)F)n2)nn1-c1ncccc1Cl` [I-1-170], 4.08. Same read-out and setting: with `CNC(=O)c1cc(C#N)cc(C)c1NC(=O)c1cc(Cn2cc(Cl)c(C(F)(F)C(F)(F)F)n2)nn1-c1ncccc1Cl` [I-1-171] the figure was 3.44; with `Cc1cc(C#N)cc(C(=O)NC(C)C)c1NC(=O)c1cc(Cn2cc(Cl)c(C(F)(F)C(F)(F)F)n2)nn1-c1ncccc1Cl` [I-1-172], 3.87. Molecule `Cc1cc(C#N)cc(C(=O)NC2CC2)c1NC(=O)c1cc(Cn2cc(Cl)c(C(F)(F)C(F)(F)F)n2)nn1-c1ncccc1Cl` [I-1-173] returned a logP of 3.59. As for `Cc1cc(C#N)cc(C(N)=O)c1NC(=O)c1cc(Cn2cc(Cl)c(C(F)(F)C(F)(F)F)n2)nn1-c1ncccc1Cl` [I-1-174], the logP is 3.20. Molecule `Cc1cc(C#N)cc(C(=O)NCC#N)c1NC(=O)c1cc(Cn2cc(Cl)c(C(F)(F)C(F)(F)F)n2)nn1-c1ncccc1Cl` [I-1-175] returned a logP of 3.40. Molecule `CNC(=O)c1cc(C#N)cc(C)c1NC(=O)c1cc(Cn2nc(C(F)(F)F)nc2C(F)(F)F)nn1-c1ncccc1Cl` [I-1-176] gave a logP of 3.11. On to `Cc1cc(C#N)cc(C(=O)NC(C)C)c1NC(=O)c1cc(Cn2nc(C(F)(F)F)nc2C(F)(F)F)nn1-c1ncccc1Cl` [I-1-177], for which the logP came to 3.53.

`Cc1cc(C#N)cc(C(=O)NC2CC2)c1NC(=O)c1cc(Cn2nc(C(F)(F)F)nc2C(F)(F)F)nn1-c1ncccc1Cl` [I-1-178] gave a logP of 3.31. Consider `Cc1cc(C#N)cc(C(N)=O)c1NC(=O)c1cc(Cn2nc(C(F)(F)F)nc2C(F)(F)F)nn1-c1ncccc1Cl` [I-1-179], for which the logP was 2.91.

In the case of `Cc1cc(C#N)cc(C(=O)NCC#N)c1NC(=O)c1cc(Cn2nc(C(F)(F)F)nc2C(F)(F)F)nn1-c1ncccc1Cl` [I-1-180], the logP was found to be 3.11. `CNC(=O)c1cc(C#N)cc(C)c1NC(=O)c1cc(Cn2ccc(C(F)(F)F)n2)nn1-c1ncccc1Cl` [I-1-181] came in with a logP of 2.57. The same measure, in the same setting: for `Cc1cc(C#N)cc(C(=O)NC(C)C)c1NC(=O)c1cc(Cn2ccc(C(F)(F)F)n2)nn1-c1ncccc1Cl` [I-1-182] the value was 2.96; for `Cc1cc(C#N)cc(C(=O)NC2CC2)c1NC(=O)c1cc(Cn2ccc(C(F)(F)F)n2)nn1-c1ncccc1Cl` [I-1-183], 2.75. The molecule `Cc1cc(C#N)cc(C(N)=O)c1NC(=O)c1cc(Cn2ccc(C(F)(F)F)n2)nn1-c1ncccc1Cl` [I-1-184] showed a logP of 2.42. For `Cc1cc(C#N)cc(C(=O)NCC#N)c1NC(=O)c1cc(Cn2ccc(C(F)(F)F)n2)nn1-c1ncccc1Cl` [I-1-185], the logP turned out to be 2.62. Regarding `CNC(=O)c1cc(C#N)cc(C)c1NC(=O)c1cc(Cn2nc(C(F)(F)F)cc2C(F)(F)F)nn1-c1ncccc1Cl` [I-1-186], the log partition coefficient (logP) turned out to be 3.35. As for `Cc1cc(C#N)cc(C(=O)NC(C)C)c1NC(=O)c1cc(Cn2nc(C(F)(F)F)cc2C(F)(F)F)nn1-c1ncccc1Cl` [I-1-187], the logP is 3.80.

Staying with this series, now noted: HPLC on reverse-phase column.
In turn, `CSCC(C)(C)NC(=O)c1cc(Cl)cc(C)c1NC(=O)c1cc(Cn2cc(Br)c(C(F)(F)F)n2)nn1-c1ncccc1Cl` [I-1-131] yielded a log partition coefficient (logP) of 4.48. On to `CNC(=O)c1cc(Cl)cc(C)c1NC(=O)c1cc(Cn2cnc(C(F)(F)F)c2)nn1-c1ncccc1Cl` [I-1-132], for which the log partition coefficient (logP) stood at 2.39. In the case of `Cc1cc(Cl)cc(C(=O)NC(C)C)c1NC(=O)c1cc(Cn2cnc(C(F)(F)F)c2)nn1-c1ncccc1Cl` [I-1-133], the logP is reported as 2.77.

Molecule `CSCC(C)(C)NC(=O)c1cc(Br)cc(C)c1NC(=O)c1cc(Cn2nc(C(F)(F)F)nc2C(F)(F)F)nn1-c1ncccc1Cl` [I-1-134] registered a logP of 4.63. Turning to `CSC[C@H](C)NC(=O)c1cc(Br)cc(C)c1NC(=O)c1cc(Cn2nc(C(F)(F)F)nc2C(F)(F)F)nn1-c1ncccc1Cl` [I-1-135], the logP came out at 4.24. The molecule `Cc1cc(Cl)cc(C(=O)NC(C)(C)C[S+](C)[O-])c1NC(=O)c1cc(Cn2cc(Br)c(C(F)(F)F)n2)nn1-c1ncccc1Cl` (centres unmarked) [I-1-136] displayed a logP of 3.23. The molecule `Cc1cc(Cl)cc(C(=O)NC(C)(C)C[S+](C)[O-])c1NC(=O)c1cc(Cn2nc(C(F)(F)F)nc2C(F)(F)F)nn1-c1ncccc1Cl` (centres unmarked) [I-1-137] came in with a logP of 3.22. Take `Cc1cc(Cl)cc(C(=O)N[C@@H](C)C[S+](C)[O-])c1NC(=O)c1cc(Cn2cc(Br)c(C(F)(F)F)n2)nn1-c1ncccc1Cl` (some centres unmarked) [I-1-138]: the logP worked out at 2.91.

Consider `Cc1cc(Cl)cc(C(=O)NC(C)(C)CS(C)(=O)=O)c1NC(=O)c1cc(Cn2nc(C(F)(F)F)nc2C(F)(F)F)nn1-c1ncccc1Cl` [I-1-139], for which the logP is 3.50. In turn, `Cc1cc(Br)cc(C(=O)N[C@@H](C)C[S+](C)[O-])c1NC(=O)c1cc(Cn2nc(C(F)(F)F)nc2C(F)(F)F)nn1-c1ncccc1Cl` (some centres unmarked) [I-1-140] gave a log partition coefficient (logP) of 3.05.

Turning to `Cc1cc(Cl)cc(C(=O)N[C@@H](C)CS(C)(=O)=O)c1NC(=O)c1cc(Cn2cc(Br)c(C(F)(F)F)n2)nn1-c1ncccc1Cl` [I-1-141], the logP is reported as 3.26. With `Cc1cc(Br)cc(C(=O)NC(C)(C)CS(C)(=O)=O)c1NC(=O)c1cc(Cn2nc(C(F)(F)F)nc2C(F)(F)F)nn1-c1ncccc1Cl` [I-1-142], the logP came out at 3.67. `Cc1cc(Br)cc(C(=O)NC(C)(C)C[S+](C)[O-])c1NC(=O)c1cc(Cn2nc(C(F)(F)F)nc2C(F)(F)F)nn1-c1ncccc1Cl` (centres unmarked) [I-1-143]: the logP was 3.20. As to `Cc1cc(Br)cc(C(=O)NC(C)(C)C[S+](C)[O-])c1NC(=O)c1cc(Cn2nc(C(F)(F)F)nc2C(F)(F)F)nn1-c1ncccc1Cl` (centres unmarked) [I-1-144], the logP was 3.38.

For `Cc1cc(Cl)cc(C(=O)NC(C)(C)CS(C)(=O)=O)c1NC(=O)c1cc(Cn2cc(Br)c(C(F)(F)F)n2)nn1-c1ncccc1Cl` [I-1-145], the logP was determined as 3.56. Turning to `Cc1cc(Br)cc(C(=O)N[C@@H](C)CS(C)(=O)=O)c1NC(=O)c1cc(Cn2nc(C(F)(F)F)nc2C(F)(F)F)nn1-c1ncccc1Cl` [I-1-146], the logP was 3.36. On to `Cc1cc(Cl)cc(C(=O)N[C@@H](C)C[S+](C)[O-])c1NC(=O)c1cc(Cn2nc(C(F)(F)F)nc2C(F)(F)F)nn1-c1ncccc1Cl` (some centres unmarked) [I-1-147], for which the logP was 2.95.

In turn, `CNC(=O)c1cc(Cl)cc(C)c1NC(=O)c1cc(Cn2nnc(-c3ccc(Cl)nc3)n2)nn1-c1ncccc1Cl` [I-1-148] returned a logP of 2.91. As for `Cc1cc(Cl)cc(C(=O)NC(C)C)c1NC(=O)c1cc(Cn2nnc(-c3ccc(Cl)nc3)n2)nn1-c1ncccc1Cl` [I-1-149], the logP is recorded as 3.41. The same measure, in the same setting: for `CNC(=O)c1cc(Cl)cc(C)c1NC(=O)c1cc(Cn2nnc(-c3ccc(Br)cc3)n2)nn1-c1ncccc1Cl` [I-1-150] the value was 3.70.
